Results reported in US6608082B1, “Treatment of erectile dysfunction using isoquinoline compound melanocortin receptor ligands” (Lion Bioscience AG, priority 1998, dated 2003).

Legend:
[1] = Body weight and food consumption after i.p. administration; format: in vivo, Sprague-Dawley rats; conditions: for reducing body weight and food consumption: rat, in vivo; for food consumption / weight gain / body weight relative to control: rats, 5 mg/kg i.p.; for food consumption / weight gain: 18 hours after injection, FIG. 6; for body weight relative to control: at 9 hours as well as 18 hours, FIG. 7
Text: Adult male Sprague-Dawley rats (175-225 g) were used to assess the effect of isoquinoline compounds on food uptake and body weight. Baseline body weight and food consumption measurements were taken for 3 days prior to start of the study (Day 0). On Day −1, the food was taken away from the animals at 5:00 PM. The next morning (Day 0), body weight measurements were taken, and the animals were divided into treatment groups with 6 animals in each group. The treatment groups were saline control, HP 228 positive control and test isoquinoline compounds. Saline was administered i.p. at 1 ml/kg. HP 228 and test isoquinoline compounds were administered i.p. at 5 mg/kg. The injections were initiated at 2:00 PM on Day 0.
Body weight and food consumption measurements were taken at 9 hr (Day 0; 11:00 PM) and at 18 hr (Day 1, 8:00 AM) after injection. At the end of the study, all evaluated parameters (9 and 18 hour body weight and food consumption) were analyzed by standard statistical methods. Significance (P<0.05) was determined by one-way ANOVA, ANOVA for repeated measures, or Student's t-test.
The level of reduction was similar to that seen with HP 228.

[2] = system: arachidonic acid induced dermal inflammation; assay: Arachidonic acid induced dermal inflammation (ear thickness); format: in vivo, Female BALB/c mice; conditions: for inflammation in response to arachadonic acid administration: mouse, in vivo; for reduction in the level of arachidonic acid-induced dermal inflammation: intraperitoneally, TRG 2409-2 or TRG 2409-14 100 or 300 μg/mouse, FIG. 5
Procedure: Female BALB/c mice (17-22 g) were used and administered the test isoquinoline compounds or positive control compounds 30 to 60 min prior to topical application of arachidonic acid. Indomethacin and HP 228 were used as positive controls. Compounds were administered orally (p.o.) or intraperitoneally (i.p.). Initial ear thickness (left and right) was measured using spring loaded micro-calipers. Arachidonic acid was applied to mice anesthetized with a cocktail of ketamine/xylazine (7.0 mg/ml and 0.6 mg/ml, respectively) administered i.p. (300 μl/mouse). Utilizing a micro-pipette, 20 μl of arachidonic acid solution (100 mg/ml ethanol or acetone) was applied to the right ear (10 μl to inner and 10 μl to outer surfaces of […] for a total of 2 mg arachidonic acid per right ear), and 20 μl of vehicle (ethanol or acetone) was applied to the left ear. Mice were returned to their cages to recover. Mice were again anesthetized 50 min after arachidonic acid application and their ears measured.
Dermal inflammation was determined by subtracting the difference of the vehicle treated left ear (L60−L0) from the difference of the arachidonic acid treated right ear (R60−R0). Ear thickness measurements were averaged for each group, and the responses in the vehicle treated control group (Cr; saline or PBS) were subtracted from the response noted in the isoquinoline compound treated group (Tr) to give the relative inflammatory response for each treatment group compared to the control group. The percent inhibition is defined by the equation: % inhibition=(Cr−Tr)/(Cr)×100.

[3] = 100 μg/mouse administered intraperitoneally, FIG. 4

CNC(CN)CCCCN1Cc2ccccc2C(CNC2CCCCC2)C1c1ccc(Cl)cc1Cl (stereo not drawn) [TRG 2405-190]
reducing body weight and food consumption [1]: particularly effective at reducing body weight and food consumption
food consumption [1]: significant decrease
weight gain [1]: significant decrease
inhibition of arachidonic acid induced dermal inflammation [2, 3]: inhibition of arachidonic acid induced dermal inflammation
inflammation in response to arachadonic acid administration [2]: reduced inflammation

CNC(CN)CCCCN1Cc2ccccc2C(CNC2CCCCC2)C1c1ccc(-c2ccccc2)cc1 (stereo not drawn) [TRG 2405-241]
reducing body weight and food consumption [1]: particularly effective at reducing body weight and food consumption
food consumption [1]: significant decrease
weight gain [1]: significant decrease
inhibition of arachidonic acid induced dermal inflammation [2, 3]: inhibition of arachidonic acid induced dermal inflammation
inhibition of arachidonic acid induced dermal inflammation ([2]; administered intraperitoneally, TRG 2405-241 300 μg/mouse, HP 228 100 μg/mouse, FIG. 3): comparable to that seen with HP 228
inhibition of arachidonic acid induced dermal inflammation ([2]; administered orally, TRG 2405-241 600 μg/mouse, indomethacin 1 mg/mouse, FIG. 2): comparable to that seen with indomethacin
inflammation in response to arachadonic acid administration [2]: reduced inflammation

CNC(CN)CCCCN1Cc2ccccc2C(CNC2CCCCC2)C1c1ccc(Oc2ccccc2)cc1 (stereo not drawn) [TRG 2405-252]
reducing body weight and food consumption [1]: particularly effective at reducing body weight and food consumption
body weight relative to control [1]: significant differences
inhibition of arachidonic acid induced dermal inflammation [2, 3]: inhibition of arachidonic acid induced dermal inflammation
inflammation in response to arachadonic acid administration [2]: reduced inflammation

CCCOc1ccc(C2C(CNC3CCCCC3)c3ccccc3CN2CCCCC(CN)NC)cc1 (stereo not drawn) [TRG 2405-253]
reducing body weight and food consumption [1]: particularly effective at reducing body weight and food consumption
body weight relative to control [1]: significant differences
inhibition of arachidonic acid induced dermal inflammation [2, 3]: inhibition of arachidonic acid induced dermal inflammation
inflammation in response to arachadonic acid administration [2]: reduced inflammation

CCCCNc1ccc(C2C(CNCc3ccccc3O)c3ccccc3CN2CCCCC(CN)NC)cc1 (stereo not drawn) [TRG 2409-2]
reduction in the level of arachidonic acid-induced dermal inflammation ([2]; HP 228 100 μg/mouse): dose dependent reduction in the level of arachidonic acid-induced dermal inflammation
inflammation in response to arachadonic acid administration [2]: reduced inflammation

CCCCNc1ccc(C2C(CNC3CCCCC3)c3ccccc3CN2CCCCC(CN)NC)cc1 (stereo not drawn) [TRG 2409-14]
reduction in the level of arachidonic acid-induced dermal inflammation ([2]; HP 228 100 μg/mouse): decreased dermal inflammation to a lesser extent than TRG 2409-2
inflammation in response to arachadonic acid administration [2]: reduced inflammation
